Measurements as given in paper PMC8854719, “Phase 1A/1B dose-escalation and -expansion study to evaluate the safety, pharmacokinetics, food effects and antitumor activity of pamiparib in advanced solid tumours” (British Journal of Cancer, 2021).

Assay: Safety and tolerability: adverse events, dose-limiting toxicities, MTD, RP2D (Phase 1A/1B)
Assay type: in vivo
Method: This was an open-label, Phase 1, dose-escalation/dose-expansion study, conducted across six study centres in Australia. The dose-escalation phase evaluated twice-daily (BID) and once-daily (QD) dosing, and the dose-expansion phase evaluated the BID RP2D from the dose-escalation phase and food effects (Fig. 1). The food-effects cohort comprised two sequences: fast followed by fed (sequence 1) and fed followed by fast (sequence 2). […] The decision to proceed to the next dose cohort was determined by the Safety Monitoring Committee and followed a modified 3 + 3 escalation scheme. […] When ≥2 DLTs occurred in the first 23 days of a dose level, the next lower dose level was declared the MTD. Safety was monitored and DLTs were assessed in all dose cohorts. […] The food-effects cohort investigated the effects of food on the PK of pamiparib in patients with advanced solid tumours.
The QD dosing regimen was added as an amendment to the protocol with the purpose of exploring the feasibility of a more convenient regimen.
Safety and tolerability were assessed throughout the study by monitoring adverse events (AEs), serious AEs, clinical laboratory measurements and physical examinations. Adverse events were categorised according to their severity (National Cancer Institute Common Terminology Criteria for Adverse Events v4.03) and relationship to the study treatment.

[1] = 101 total patients, dose escalation and expansion
[2] = BID dose-escalation (2.5–120 mg), 45 patients
[3] = BID dose-escalation, 45 patients
[4] = Dose Escalation and Dose Expansion (N=101)
[5] = Total BID dose escalation (N = 45)
[6] = Total QD dose escalation (N=19)

## C[C@]12CCCN1CC1=NNC(=O)c3cc(F)cc4[nH]c2c1c34 [pamiparib]
101 patients
  Serious AE: nausea: 4.0%
  Serious AE: pleural effusion: 3.0%
  Serious AE: pneumonia: 3.0%
  Serious AE: small intestinal obstruction: 5.0%
101 patients (44 patients)
  Serious AEs: 43.6%
101 total patients
  Anaemia leading to dose reduction/interruption: 21.8%
  Haematologic AEs leading to dose reduction/interruption: 23.8%
  Neutropenia leading to dose reduction/interruption: 5.9%
  Thrombocytopenia leading to dose reduction/interruption: 4.0%
101 total patients (six patients)
  Adverse events leading to treatment discontinuation: 5.9%
[1]
  Anaemia, Grades ≥3: 24.8%
  Anaemia, all Grades: 35.6%
  Diarrhoea, Grades ≥3: 2.0%
  Diarrhoea, all Grades: 32.7%
  Fatigue, Grades ≥3: 3.0%
  Fatigue, all Grades: 48.5%
  Increased alanine aminotransferase, Grades ≥3: 5.0%
  Increased alanine aminotransferase, all Grades: 11.9%
  Nausea, Grades ≥3: 4.0%
  Nausea, all Grades: 69.3%
  Neutropenia, Grades ≥3: 5.9%
  Neutropenia, all Grades: 9.9%
  Vomiting, Grades ≥3: 1.0%
  Vomiting, all Grades: 31.7%
120-mg BID dosage cohort
  Treatment-related grade ≥3 AEs: 60.0%
160-mg QD dosage cohort
  Treatment-related grade ≥3 AEs: 63.6%
BID dosage cohort, dose escalation (N=45)
  Patients with a grade ≥3 AE: 62.2%
[2]
  Anaemia, AE: 33.3%
  Diarrhoea, AE: 28.9%
  Fatigue, AE: 33.3%
  Nausea, AE: 64.4%
  Vomiting, AE: 35.6%
[3]
  Treatment-related AEs leading to dose interruptions: 31.1%
  Treatment-related AEs leading to dose reductions: 6.7%
BID dosing
  Maximum tolerated dose (MTD): 80 mg
  Recommended Phase 2 dose (RP2D): 60 mg
[4]
  Abdominal pain, All Grades: 17 (16.8) n (%)
  Abdominal pain, Grade ≥3: 1 (1.0) n (%)
  Anemia, All Grades: 36 (35.6) n (%)
  Anemia, Grade ≥3: 25 (24.8) n (%)
  Constipation, All Grades: 21 (20.8) n (%)
  Constipation, Grade ≥3: 0 n (%)
  Decreased appetite, All Grades: 23 (22.8) n (%)
  Decreased appetite, Grade ≥3: 0 n (%)
  Diarrhea, All Grades: 33 (32.7) n (%)
  Diarrhea, Grade ≥3: 2 (2.0) n (%)
  Fatigue, All Grades: 49 (48.5) n (%)
  Fatigue, Grade ≥3: 3 (3.0) n (%)
  Headache, All Grades: 12 (11.9) n (%)
  Headache, Grade ≥3: 0 n (%)
  Increased alanine aminotransferase, All Grades: 12 (11.9) n (%)
  Increased alanine aminotransferase, Grade ≥3: 5 (5.0) n (%)
  Increased aspartate aminotransferase, All Grades: 10 (9.9) n (%)
  Increased aspartate aminotransferase, Grade ≥3: 3 (3.0) n (%)
  Nausea, All Grades: 70 (69.3) n (%)
  Nausea, Grade ≥3: 4 (4.0) n (%)
  Neutropenia, All Grades: 10 (9.9) n (%)
  Neutropenia, Grade ≥3: 6 (5.9) n (%)
  Upper respiratory tract infection, All Grades: 12 (11.9) n (%)
  Upper respiratory tract infection, Grade ≥3: 0 n (%)
  Urinary tract infection, All Grades: 14 (13.9) n (%)
  Urinary tract infection, Grade ≥3: 1 (1.0) n (%)
  Vomiting, All Grades: 32 (31.7) n (%)
  Vomiting, Grade ≥3: 1 (1.0) n (%)
QD dosage cohort, dose escalation (N=19)
  Patients with a grade ≥3 AE: 73.7%
QD dosage group (N=19)
  Treatment-related AEs leading to dose interruptions: 57.9%
  Treatment-related AEs leading to dose reductions: 5.3%
QD dosage group overall (N=19)
  Diarrhea, AE: 47.4%
  Fatigue, AE: 68.4%
  Nausea, AE: 73.7%
QD dosing
  Maximum tolerated dose (MTD): 160 mg
  Recommended Phase 2 dose (RP2D): 120 mg
[5]
  Abdominal pain, AE of any grade: 9 (20.0) n (%)
  Anaemia, AE of any grade: 15 (33.3) n (%)
  Ascites, AE of any grade: 5 (11.1) n (%)
  Back pain, AE of any grade: 4 (8.9) n (%)
  Constipation, AE of any grade: 8 (17.8) n (%)
  Cough, AE of any grade: 4 (8.9) n (%)
  Decreased appetite, AE of any grade: 5 (11.1) n (%)
  Diarrhoea, AE of any grade: 13 (28.9) n (%)
  Dose-limiting toxicity: 4 (8.9) n (%)
  Dyspnoea, AE of any grade: 3 (6.7) n (%)
  Fatigue, AE of any grade: 15 (33.3) n (%)
  Headache, AE of any grade: 4 (8.9) n (%)
  Hypoalbuminemia, AE of any grade: 3 (6.7) n (%)
  Hypomagnesemia, AE of any grade: 4 (8.9) n (%)
  Hypophosphatemia, AE of any grade: 3 (6.7) n (%)
  Increased AST, AE of any grade: 3 (6.7) n (%)
  Muscle spasms, AE of any grade: 4 (8.9) n (%)
  Nausea, AE of any grade: 29 (64.4) n (%)
  Neutropenia, AE of any grade: 6 (13.3) n (%)
  Non-cardiac chest pain, AE of any grade: 3 (6.7) n (%)
  Pain in extremity, AE of any grade: 3 (6.7) n (%)
  Peripheral sensory neuropathy, AE of any grade: 3 (6.7) n (%)
  Pleural effusion, AE of any grade: 4 (8.9) n (%)
  Pyrexia, AE of any grade: 4 (8.9) n (%)
  Treatment-emergent AE: 45 (100.0) n (%)
  Treatment-emergent AE: Grade 3 or higher: 28 (62.2) n (%)
  Treatment-emergent AE: Leading to death: 4 (8.9) n (%)
  Treatment-emergent AE: Leading to dose interruption: 27 (60.0) n (%)
  Treatment-emergent AE: Leading to dose modification: 27 (60.0) n (%)
  Treatment-emergent AE: Leading to dose reduction: 3 (6.7) n (%)
  Treatment-emergent AE: Leading to treatment discontinuation: 3 (6.7) n (%)
  Treatment-emergent AE: Serious: 25 (55.6) n (%)
  Treatment-related AE: 35 (77.8) n (%)
  Treatment-related AE: Grade 3 or higher: 10 (22.2) n (%)
  Treatment-related AE: Leading to death: 0 (0.0) n (%)
  Treatment-related AE: Leading to dose interruption: 14 (31.1) n (%)
  Treatment-related AE: Leading to dose modification: 14 (31.1) n (%)
  Treatment-related AE: Leading to dose reduction: 3 (6.7) n (%)
  Treatment-related AE: Leading to treatment discontinuation: 2 (4.4) n (%)
  Treatment-related AE: Serious: 3 (6.7) n (%)
  Upper respiratory tract infection, AE of any grade: 8 (17.8) n (%)
  Urinary tract infection, AE of any grade: 8 (17.8) n (%)
  Vomiting, AE of any grade: 16 (35.6) n (%)
[6]
  Dose-limiting toxicity: 1 (5.3) n (%)
  Treatment-emergent AE: 19 (100.0) n (%)
  Treatment-emergent AE: Grade 3 or higher: 14 (73.7) n (%)
  Treatment-emergent AE: Leading to death: 0 (0.0) n (%)
  Treatment-emergent AE: Leading to dose interruption: 13 (68.4) n (%)
  Treatment-emergent AE: Leading to dose modification: 13 (68.4) n (%)
  Treatment-emergent AE: Leading to dose reduction: 1 (5.3) n (%)
  Treatment-emergent AE: Leading to treatment discontinuation: 2 (10.5) n (%)
  Treatment-emergent AE: Serious: 6 (31.6) n (%)
  Treatment-related AE: 17 (89.5) n (%)
  Treatment-related AE: Grade 3 or higher: 10 (52.6) n (%)
  Treatment-related AE: Leading to death: 0 (0.0) n (%)
  Treatment-related AE: Leading to dose interruption: 11 (57.9) n (%)
  Treatment-related AE: Leading to dose modification: 11 (57.9) n (%)
  Treatment-related AE: Leading to dose reduction: 1 (5.3) n (%)
  Treatment-related AE: Leading to treatment discontinuation: 2 (10.5) n (%)
  Treatment-related AE: Serious: 1 (5.3) n (%)
